We go through four compounds from PMC7366380, “Discovery of a Potent and Selective Covalent Inhibitor and Activity-Based Probe for the Deubiquitylating Enzyme UCHL1, with Antifibrotic Activity” (Journal of the American Chemical Society, 2020).

Some results are limits rather than exact numbers.

For assay [1], the target named is T1, USP19 (Homo sapiens, UniProt O94966).
T1 sequence (O94966 1-1318): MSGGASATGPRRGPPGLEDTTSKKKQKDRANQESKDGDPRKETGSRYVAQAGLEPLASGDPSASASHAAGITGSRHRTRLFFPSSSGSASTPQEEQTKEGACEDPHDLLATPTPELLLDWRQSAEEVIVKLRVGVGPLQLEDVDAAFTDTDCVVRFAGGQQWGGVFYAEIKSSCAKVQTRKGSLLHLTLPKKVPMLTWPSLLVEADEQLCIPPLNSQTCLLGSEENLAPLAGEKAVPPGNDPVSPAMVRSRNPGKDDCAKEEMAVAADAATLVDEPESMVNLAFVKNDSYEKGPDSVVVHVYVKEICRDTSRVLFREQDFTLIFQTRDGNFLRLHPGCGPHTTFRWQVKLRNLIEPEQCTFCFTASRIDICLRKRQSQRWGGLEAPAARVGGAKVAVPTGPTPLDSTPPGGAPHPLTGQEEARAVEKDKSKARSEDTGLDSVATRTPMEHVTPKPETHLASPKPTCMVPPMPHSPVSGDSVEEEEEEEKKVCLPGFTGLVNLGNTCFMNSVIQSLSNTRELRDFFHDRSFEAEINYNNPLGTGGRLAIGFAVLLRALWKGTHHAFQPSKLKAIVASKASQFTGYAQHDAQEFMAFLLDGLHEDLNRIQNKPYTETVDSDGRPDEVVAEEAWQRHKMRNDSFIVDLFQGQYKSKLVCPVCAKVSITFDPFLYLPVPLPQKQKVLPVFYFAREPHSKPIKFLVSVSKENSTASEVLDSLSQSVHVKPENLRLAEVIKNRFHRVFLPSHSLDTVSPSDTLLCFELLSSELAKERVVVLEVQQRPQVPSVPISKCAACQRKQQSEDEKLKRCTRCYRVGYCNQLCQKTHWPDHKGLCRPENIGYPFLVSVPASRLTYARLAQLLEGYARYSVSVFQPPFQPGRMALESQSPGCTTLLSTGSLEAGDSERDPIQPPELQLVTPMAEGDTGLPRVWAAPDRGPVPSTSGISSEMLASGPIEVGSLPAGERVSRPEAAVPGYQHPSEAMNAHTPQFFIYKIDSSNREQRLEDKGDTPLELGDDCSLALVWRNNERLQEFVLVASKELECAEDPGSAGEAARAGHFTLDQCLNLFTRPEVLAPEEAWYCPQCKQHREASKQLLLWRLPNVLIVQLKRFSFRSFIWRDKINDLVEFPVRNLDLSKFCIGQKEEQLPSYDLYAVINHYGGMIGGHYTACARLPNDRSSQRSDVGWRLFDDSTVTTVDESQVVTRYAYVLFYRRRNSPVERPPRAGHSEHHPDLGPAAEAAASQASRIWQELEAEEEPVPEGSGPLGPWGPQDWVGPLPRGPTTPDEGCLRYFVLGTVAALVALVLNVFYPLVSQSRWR
As to the kind of experiment: Biochemical DUB selectivity profiling assay: USP19. The note with it: Ub-Lys-TAMRA 50 nM, buffer A; read-out: Biochemical IC50 range, USP19. On the procedure: DUB Assay Substrate Substrate
Buffer Concentration (nM) […]
Sepharose® 4B resin (GE Healthcare).
10 kDa molecular weight cut-off (MWCO)).
Fractions containing protein
Protein concentration was […]
reaction volume of 21 μL. […]
compound (final concentration 5 nM).
IC50 values were determined
Biochemical DUB selectivity profiling assays […]
in 40 µL total reaction volume.

Assay [2] has as its target T2, USP21 (Homo sapiens, UniProt Q9UK80).
T2 sequence (Q9UK80 1-565): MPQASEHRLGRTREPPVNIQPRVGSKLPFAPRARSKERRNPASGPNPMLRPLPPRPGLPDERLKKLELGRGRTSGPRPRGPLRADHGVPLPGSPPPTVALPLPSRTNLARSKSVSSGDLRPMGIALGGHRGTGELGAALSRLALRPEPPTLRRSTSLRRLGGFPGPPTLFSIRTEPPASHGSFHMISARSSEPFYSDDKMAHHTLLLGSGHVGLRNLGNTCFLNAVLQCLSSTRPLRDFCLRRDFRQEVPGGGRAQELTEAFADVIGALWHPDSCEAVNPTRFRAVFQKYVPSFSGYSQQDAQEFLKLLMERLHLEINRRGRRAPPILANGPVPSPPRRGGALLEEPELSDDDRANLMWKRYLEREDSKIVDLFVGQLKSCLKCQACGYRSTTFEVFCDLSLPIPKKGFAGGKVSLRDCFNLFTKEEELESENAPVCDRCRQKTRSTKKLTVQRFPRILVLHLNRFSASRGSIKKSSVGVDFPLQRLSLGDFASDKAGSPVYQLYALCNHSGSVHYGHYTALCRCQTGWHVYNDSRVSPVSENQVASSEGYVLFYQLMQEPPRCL
In words: biochemical.

Assay [3] concerns the target T3, FLAG-UCHL1 (Homo sapiens, UniProt P09936).
T3 construct: expressed in transfected cells
T3 sequence (P09936 1-223): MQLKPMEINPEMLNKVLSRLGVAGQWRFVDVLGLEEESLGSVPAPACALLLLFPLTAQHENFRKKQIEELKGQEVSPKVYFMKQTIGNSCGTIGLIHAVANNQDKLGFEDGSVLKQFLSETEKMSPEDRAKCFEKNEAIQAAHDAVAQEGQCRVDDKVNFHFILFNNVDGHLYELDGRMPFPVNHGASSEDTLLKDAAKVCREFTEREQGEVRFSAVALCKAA
As to the kind of experiment: HTRF in-cell UCHL1 activity assay with HA-Ub-VME in Cal51 cells. Format: cell-based. The conditions noted are these: Cal51 cells stably expressing FLAG-UCHL1, 1 h, HA-Ub-VME 100 nM.

Assay [4] deals with T4, UCHL5 (Homo sapiens, UniProt Q9Y5K5).
T4 sequence (Q9Y5K5 1-329): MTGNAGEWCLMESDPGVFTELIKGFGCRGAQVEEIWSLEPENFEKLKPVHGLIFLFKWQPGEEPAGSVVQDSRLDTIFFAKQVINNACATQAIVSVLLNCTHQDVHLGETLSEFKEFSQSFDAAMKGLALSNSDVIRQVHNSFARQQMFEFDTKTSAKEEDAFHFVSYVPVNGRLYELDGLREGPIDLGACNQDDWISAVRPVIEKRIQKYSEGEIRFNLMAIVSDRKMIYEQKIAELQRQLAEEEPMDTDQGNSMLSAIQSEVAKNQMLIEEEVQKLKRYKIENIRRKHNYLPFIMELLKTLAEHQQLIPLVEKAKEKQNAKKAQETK
In words: biochemical.

What is called IC50 is the concentration needed to halve the response being measured. For the compound `N#CN1CCC[C@H]1C(=O)N1CCc2c(-c3c[nH]c4ncccc34)cccc21` [Compound 1], the IC50 in assay [1] was above 10 µM; in assay [2] it was above 10 µM; in assay [3], 0.82 µM; in assay [4], above 10 µM.

On to `C#Cc1cnc2[nH]cc(-c3cccc4c3CCN4C(=O)[C@@H]3CCCN3C#N)c2c1` [Compound 2], for which the IC50 in assay [1] was above 10 µM; in assay [3], 0.11 µM.

`N#CN1CCC[C@@H]1C(=O)N1CCc2c(-c3c[nH]c4ncccc34)cccc21` [Compound 3]: the IC50 in assay [1] was above 10 µM; in assay [2] it was above 10 µM; in assay [3] it was 23 µM; in assay [4], above 10 µM.

Turning to `CC(=O)O/N=C1\C(=O)N(Cc2cc(Cl)ccc2Cl)c2ccc(Cl)cc21` [LDN-57444, reference compound], the IC50 in assay [1], in assay [2] and in assay [4] was above 10 µM each time.
